“Also recorded” adds a separate entry of the source.
How the values were obtained:
deltaF508 CFTR = target: T1, deltaF508 CFTR (Homo sapiens, UniProt P13569, DEL508-508); experiment: CFBE potentiator assay (FLIPR membrane potential, temperature-rescued); assay type: cell-based; details: CFBE cells, 3 micromolar forskolin; read-out: CFBE potentiator assay pot. pEC50 (converted)
T1 construct: host or cells: CFBE (cystic fibrosis bronchial-derived cell line)
Experimental: Cell culture: HEK293 cells stably expressing human deltaF508 CFTR were cultured in DMEM/F12 medium containing 10% fetal bovine serum (FBS) and 600 micrograms/mL geneticin. For functional CFTR assays, cryo-preserved cells were quickly thawed in a 37° C. water bath, diluted with warm DMEM/F12 medium containing 10% FBS, spun down at 300×g for 5 mins and resuspended in the same medium at a density of 300,000 cells/mL. A cystic fibrosis bronchial-derived cell line complemented with a 4.7 Kb deltaF508 CFTR cDNA (“CFBE”) was obtained from Dr. Dieter Gruenert under a license from UCSF. These cells were cultured in MEM with Earle's salt (Invitrogen)supplemented with 10% fetal bovine serum (Invitrogen) and 300 micrograms/mL hygromycin (Millipore). CFBE cells were grown on flasks coated with a fibronectin solution containing LHC basal medium (Invitrogen), 0.001% bovine serum albumin (Sigma), 1% v/v Vitrogen 100 (BD Bioscience) and 10 micrograms/mL human fibronectin (Life Technologies). All cells were grown at 37° C. and 5% CO2 unless specified for an assay.
CFBE potentiator assay: CFBE cells were dissociated for 10 mins at 37° C. with Hank's balanced salt solution containing 0.6 mM EDTA and 10% of a 0.25% Trypsin/EDTA solution (all from Life Technologies). An equal amount of CFBE cell growth medium (see Cell culture above) was then added to the flasks and cells were spun at 500×g for 10 mins. Cells were re-suspended in cell medium at a density of 150,000 cells/mL and plated in 384-well black, poly-D-Lysine-coated plates (7,500 cells/well). Cells were then grown at 37° C., 5% CO2 for a total of 6-8 days to allow differentiation. Cell medium was changed every 2-3 days. The day before each experiment, culture medium was removed, fresh culture medium was added and cells were placed at 30° C., 5% CO2 for 18-24 hrs to allow temperature rescue of delF508 CFTR. Potentiation activity was measured as described above for HEK cells except cells were stained for exactly 60 mins, compounds (or DMSO for negative control) were mixed with assay buffer containing 3 micromolar forskolin, and the positive control wells had assay buffer containing 3 micromolar forskolin and 9 micromolar VX-770 (Selleckchem).
Data analysis: CFTR activity was defined as maximum fluorescence signal after addition minus baseline fluorescence. All data were normalized to each plate's positive and negative controls and expressed as percent responses. Concentration response curves were analyzed by fitting the data to a 4-parameter logistic equation in Microcal's Origin or IDBS' Activity Base software.

[1] = system: primary differentiated human bronchial epithelial cultures; experiment: Bead tracking assay of mucociliary movement, primary bronchial epithelial cultures exposed to cigarette smoke extract; assay type: cell-based; details: for mucostasis / bead velocity in CSE-treated cultures: CSE 2%, compound 1 μM for 24 hours, forskolin 10 μM
Experimental: Compound 11 was tested in an in-vitro model of COPD. In this model, primary differentiated human bronchial epithelial cultures were exposed to cigarette smoke extract (4,5). Exposure to cigarette smoke extract (CSE) led to mucostasis and slowed mucociliary movement (FIG. 1(A) and (B)). […] Changes in mucociliary movement were determined as in our previous publication (7), i.e., by tracking the speed of fluorescent beads added to the surface of the airway cultures. The relative rescue effect of Compound 11 compared favourably relative to the competitor, the FDA approved CFTR potentiator marketed as Ivacaftor (VX-770).
Mature bronchial epithelial cultures, seeded on 24-well transwell inserts, derived from non-smoker donors of variable ages were received from the University of Iowa and cultured at air-liquid interface (ALI) using UltraG medium. A total of 6 inserts per donor were cultured, and all inserts from a single donor were selected to receive chronic drug and toxin treatment. Ahead of chronic treatment, cultures were subject to mucomist to reduce the volume and viscosity of the mucous layer ahead of imaging. Cultures were first washed twice with 200 uL HBSS (Wisent) applied apically to the transwell, each wash for 10 minutes at 37 degrees and 5% CO2. Cells were then incubated with 10 μM N-acetyl-cysteine (source?) dissolved in HBSS (Wisent) for 30 minutes, followed by a final HBSS wash as described previously. The toxin treatment consisted of either cigarette smoke extract (CSE) prepared in 100% DMSO (University of Alabama at Birmingham), dissolved at a concentration of 2% (v/v) in UltraG medium, with an equivalent concentration of DMSO alone serving as a control. The chronic drug treatment was co-applied with the toxin treatment, which included either VX-770 (Vertex) or SK-POT, aka Compound 11 (both prepared in 100% DMSO) dissolved in UltraG medium at a final concentration of 1 μm. There were a total of 6 chronic treatments, with each of the 6 inserts per donor receiving a different chronic treatment. Bronchial epithelia were incubated with the chronic treatment, applied apically, for 24 hours at 37 degrees C. and 5% CO2. After 24 hours, green fluorescent microspheres (brand?) dissolved in HBSS at a concentration of 0.05% (v/v) were applied apically; cultures were incubated with the microspheres for 45 minutes. The toxin and potentiator treatments were carried forth into the microsphere solution.
Inserts were then imaged at room temperature by epifluorescence microscopy (Zeiss or Olympus). The basic replicate of the assay consists of a 5-second video captured in the green channel and 40-60 frames per second; Z-position was adjusted ahead of each video to ensure beads in the airway surface liquid stratum immediately above the cilia were being captured. 5 videos were captured per insert/conditions, representing the centre and 4 corners of the insert. 2 sets of 5 videos were captured per insert/condition: one at baseline, and one 20 minutes following CFTR stimulation by forskolin at a concentration of 10 μM. Inserts were incubated at room temperature after forskolin addition.
Videos were captured using Volocity software and exported as one TIF file per frame. Frames were then re-compiled into complete videos using Arivis 4D software. Using an algorithm as previously described in Wu et al. 2017, microspheres were highlighted by adjusting two parameters: fluorescence intensity and diameter. […]

T1 sequence (P13569 with tags, fused parts or gaps DEL508-508): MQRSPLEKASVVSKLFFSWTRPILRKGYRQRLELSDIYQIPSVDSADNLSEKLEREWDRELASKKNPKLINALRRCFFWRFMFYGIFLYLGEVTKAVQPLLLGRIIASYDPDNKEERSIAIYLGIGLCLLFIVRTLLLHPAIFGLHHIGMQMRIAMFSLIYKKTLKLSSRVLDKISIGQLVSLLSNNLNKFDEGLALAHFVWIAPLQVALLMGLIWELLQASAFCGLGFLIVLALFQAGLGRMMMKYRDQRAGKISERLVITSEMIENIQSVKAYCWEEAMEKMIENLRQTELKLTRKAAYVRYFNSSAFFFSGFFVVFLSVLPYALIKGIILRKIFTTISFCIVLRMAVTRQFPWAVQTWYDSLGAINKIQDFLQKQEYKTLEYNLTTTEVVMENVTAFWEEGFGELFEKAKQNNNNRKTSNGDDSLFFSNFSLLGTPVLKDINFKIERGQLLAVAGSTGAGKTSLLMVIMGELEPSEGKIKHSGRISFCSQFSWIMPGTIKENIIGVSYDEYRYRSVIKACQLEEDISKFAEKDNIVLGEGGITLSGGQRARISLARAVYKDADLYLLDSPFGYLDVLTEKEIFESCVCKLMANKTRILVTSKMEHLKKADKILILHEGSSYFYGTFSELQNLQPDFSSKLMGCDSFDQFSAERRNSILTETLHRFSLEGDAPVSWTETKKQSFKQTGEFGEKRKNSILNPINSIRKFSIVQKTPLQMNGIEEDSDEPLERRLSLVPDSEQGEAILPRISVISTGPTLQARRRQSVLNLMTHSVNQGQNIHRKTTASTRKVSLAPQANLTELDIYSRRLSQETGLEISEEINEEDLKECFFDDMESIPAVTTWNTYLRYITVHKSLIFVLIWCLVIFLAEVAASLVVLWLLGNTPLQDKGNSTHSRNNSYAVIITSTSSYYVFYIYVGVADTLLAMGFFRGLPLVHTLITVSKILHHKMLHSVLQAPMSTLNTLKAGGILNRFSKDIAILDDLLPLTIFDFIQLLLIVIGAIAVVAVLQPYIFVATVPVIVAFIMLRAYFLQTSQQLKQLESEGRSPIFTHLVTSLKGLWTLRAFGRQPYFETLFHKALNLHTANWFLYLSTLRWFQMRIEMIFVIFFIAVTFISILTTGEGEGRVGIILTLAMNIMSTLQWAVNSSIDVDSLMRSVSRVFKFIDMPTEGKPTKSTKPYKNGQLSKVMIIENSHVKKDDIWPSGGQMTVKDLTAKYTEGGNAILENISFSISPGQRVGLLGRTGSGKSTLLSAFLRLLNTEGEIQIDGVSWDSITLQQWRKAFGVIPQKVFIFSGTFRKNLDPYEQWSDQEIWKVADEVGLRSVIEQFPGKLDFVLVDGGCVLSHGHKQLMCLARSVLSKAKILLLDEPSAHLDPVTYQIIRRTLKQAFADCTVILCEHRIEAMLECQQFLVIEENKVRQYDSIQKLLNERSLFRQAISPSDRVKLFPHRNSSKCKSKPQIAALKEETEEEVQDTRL

## CC(C)(C)c1ccc(-n2nc(-c3ccc(F)cc3)c(N3CCCCC3)c(N)c2=O)cc1O [Compound 11, 4-amino-2-(4-(tert-butyl)-3-hydroxyphenyl)-6-(4-fluorophenyl)-5-(piperidin-1-yl)pyridazin-3(2H)-one]
deltaF508 CFTR
  EC50: 10 nM
[1]
  mucostasis / bead velocity in CSE-treated cultures: prevented the mucostasis induced by cigarette smoke extract; also recorded: rescued to control values
[1]; listed as SK-POT
  mucostasis / bead velocity in CSE-treated cultures: significant increase in bead velocity
[1]; no CSE, compound added with vehicle for 24 hours
  bead velocity under control conditions: Neither VX-770 nor Compound 11 had any impact on bead velocity

— patent US20260055065A1, “PYRIDAZINONE COMPOUNDS WHICH MODULATE MUTANT PROTEINS FOR TREATING RESPIRATORY DISEASES” (The Hospital for Sick Children, priority 2022, published 2026)
